# Assay results published in the supplement of paper PMC10307832.
# Tests used:
# Experiment in all cases: relative viability (nuclei count vs DMSO), 5 days (fraction); higher = more cells survive
# Tosedostat + Palbociclib = compound: CC(C)C[C@@H](C(=O)N[C@H](C(=O)OC1CCCC1)c1ccccc1)[C@H](O)C(=O)NO [Tosedostat] + CC(=O)c1c(C)c2cnc(Nc3ccc(N4CCNCC4)cn3)nc2n(C2CCCC2)c1=O [Palbociclib] (partner 0.5 µM)
# In short: (§1)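 Lung cancer cell lines were pin-tool dosed in 1536-well plates on the day after seeding, with either a lone drug or a fixed anchor-drug dose plus five library-drug doses (not always all listed) in √10 steps. Nuclei were counted on 4× images after 5 days. Relative viability is the ratio of treated-well to vehicle-well nuclei counts, with each value a median of duplicate plates.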
# Tosedostat + Navitoclax = compound: CC(C)C[C@@H](C(=O)N[C@H](C(=O)OC1CCCC1)c1ccccc1)[C@H](O)C(=O)NO [Tosedostat] + CC1(C)CCC(c2ccc(Cl)cc2)=C(CN2CCN(c3ccc(C(=O)NS(=O)(=O)c4ccc(N[C@H](CCN5CCOCC5)CSc5ccccc5)c(S(=O)(=O)C(F)(F)F)c4)cc3)CC2)C1 [Navitoclax] (partner 0.5 µM)
# In short: as §1
# [1] = compound: CC1=NN=C(O1)C2=NN=C(C=C2)N3CCC(CC3)OC4=C(C=CC(=C4)F)Cl + C[C@@H](Oc1cc(-c2cnn(C3CCNCC3)c2)cnc1N)c1c(Cl)ccc(F)c1Cl [Crizotinib] (partner 1 µM)
# In short: as §1
# [2] = compound: CC1=NN=C(O1)C2=NN=C(C=C2)N3CCC(CC3)OC4=C(C=CC(=C4)F)Cl + C[C@]1(O)C[C@@H](c2nc(-c3ccc4ccc(-c5ccccc5)nc4c3)c3c(N)nccn32)C1 [Linsitinib] (partner 1 µM)
# In short: as §1
Cell Line,relative viability (Tosedostat + Palbociclib; first compound 0.02 µM),relative viability (Tosedostat + Palbociclib; first compound 0.06325 µM),relative viability (Tosedostat + Palbociclib; first compound 0.2 µM),relative viability (Tosedostat + Palbociclib; first compound 0.6325 µM),relative viability (Tosedostat + Palbociclib; first compound 2 µM),relative viability (Tosedostat + Navitoclax; first compound 0.02 µM),relative viability (Tosedostat + Navitoclax; first compound 0.06325 µM),relative viability (Tosedostat + Navitoclax; first compound 0.2 µM),relative viability (Tosedostat + Navitoclax; first compound 0.6325 µM),relative viability (Tosedostat + Navitoclax; first compound 2 µM),relative viability ([1]; first compound 0.253 µM),relative viability ([1]; first compound 0.8 µM),relative viability ([1]; first compound 2.53 µM),relative viability ([1]; first compound 8 µM),relative viability ([2]; first compound 0.253 µM),relative viability ([2]; first compound 0.8 µM),relative viability ([2]; first compound 2.53 µM),relative viability ([2]; first compound 8 µM)
LU99A,0.428,0.449,0.476,0.376,0.325,0.813,0.869,0.774,0.832,0.683,0.571,0.604,0.655,0.552,0.459,0.5,0.498,0.466
LXF-289,0.653,0.608,0.612,0.665,0.625,0.965,0.879,0.938,0.897,0.958,0.612,0.593,0.623,0.545,0.724,0.712,0.688,0.603
NCI-H23,0.509,0.494,0.521,0.37,0.428,0.765,0.872,0.885,0.57,0.528,0.6,,0.454,0.441,0.482,,0.543,0.521
NCI-H322M,0.466,0.473,0.459,0.524,0.455,1.17,1.11,1.19,1.14,1.02,0.762,0.792,0.899,0.886,0.853,0.836,0.896,0.786
NCI-H441,0.188,0.258,0.242,0.23,0.186,1.01,0.477,0.421,0.576,0.339,0.615,0.428,0.541,0.36,0.571,0.419,0.473,0.396
NCI-H460,0.192,0.203,0.11,0.146,0.128,1.38,1.18,1.09,0.891,1.23,0.359,0.301,0.311,0.296,0.331,0.3,0.398,0.342
NCI-H520,0.245,0.236,0.239,0.303,0.315,1.19,1.3,1.14,1.08,1.4,0.692,0.707,0.694,0.632,0.929,0.793,0.93,0.755
NCI-H647,0.401,0.344,0.388,0.427,0.502,1.25,1.22,0.936,1.08,1.14,0.664,0.691,0.726,0.528,0.759,0.805,0.616,0.582
NCI-H727,0.715,0.637,0.617,0.645,0.597,0.369,0.295,0.386,0.282,0.195,0.725,0.901,0.672,0.683,0.189,0.251,0.327,0.251
